The text below walks through data of patent US20050026950A1, “Methods of therapeutic treatment using retinoids to achieve consistent bioavailability” (Allergan, Inc., priority 2003, published 2005).

One series relates to RARs. Description: RAR activation. It is filed as cell-based.
For another series, the system named is RXRs. Kind of series: RXR activation. It is filed as cell-based.
The conditions of series [1]: oral, cited from earlier work.
The conditions of series [2]: cited from earlier work.
For series [3] the following is noted: published data (N = 525); cited from earlier work.
The conditions of series [4]: published data (N = 525); cited from earlier work. The source holds these as a separate data set.
Series [5] is described as follows: Patient with severe psoriasis taking Ortho-Novum treated with tazarotene. The format is in vivo, human. The conditions noted are these: female, human, in vivo, tazarotene 6 mg per day, mean ±SD. An excerpt:
The patient presents symptoms of severe psoriasis. The symptoms include lesions approximately 4 to 10 centimeters across appearing as raised patches of wine red skin many of which are covered in silvery white scales. The lesions are mostly dry and rough, and quite often noticeably warm to the touch. The lesions are present on the elbows, knees, scalp, and groin area. The patient experiences intense burning and itching associated with the lesions.
The patient is currently taking Ortho-Novum® for contraception.
Tazarotene at a dose of 6 mg per day is prescribed.

Series [6] can be described thus: Food effect (high-fat meal vs 8-10 hour fast) on pharmacokinetics of tazarotenic acid after oral tazarotene in normal healthy subjects. The conditions noted are these: 6.3 mg oral tazarotene, fed vs fasted. It is filed as in vivo, human. An excerpt:
For the purposes of this application, the bioavailability of a drug may be based on the human pharmokinetic parameters of maximum blood concentration (Cmax) and Area under the blood concentration-time curve (AUC).

A further series has as its target T1, RAR-α (Homo sapiens, UniProt P10276).
T1 sequence (P10276 1-462): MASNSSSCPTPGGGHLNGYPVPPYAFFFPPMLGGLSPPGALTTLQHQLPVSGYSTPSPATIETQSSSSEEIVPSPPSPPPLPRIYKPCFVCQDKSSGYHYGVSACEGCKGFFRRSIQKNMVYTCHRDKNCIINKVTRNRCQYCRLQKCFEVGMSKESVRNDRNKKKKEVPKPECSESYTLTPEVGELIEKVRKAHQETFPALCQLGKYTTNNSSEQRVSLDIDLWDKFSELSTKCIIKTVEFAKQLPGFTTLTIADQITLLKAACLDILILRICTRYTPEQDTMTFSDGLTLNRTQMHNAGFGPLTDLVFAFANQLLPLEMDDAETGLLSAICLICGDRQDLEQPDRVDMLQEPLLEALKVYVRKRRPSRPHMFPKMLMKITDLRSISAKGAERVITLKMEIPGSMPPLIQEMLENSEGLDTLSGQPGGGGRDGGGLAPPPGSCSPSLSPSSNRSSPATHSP
Kind of series: RAR-α activity. It is filed as cell-based.

Where two headings read alike, the source gives them in different places.

As to `CC1(C)CC[S+]([O-])c2ccc(C#Cc3ccc(C(=O)O)cn3)cc21` (centres unmarked) [AGN 190844], the “activation of the RARs” value in the series on RARs is recorded as “does not activate either the RARs or the RXRs”. Besides, the “activation of the RXRs” value in the series with RXRs is given as “does not activate either the RARs or the RXRs”.
For `COc1cc(C)c(/C=C/C(C)=C/C=C/C(C)=C/C(=O)O)c(C)c1C` [acitretin], the “impact of food on bioavailability” value in series [1] was “bioavailability is increased in the presence of food”. Moreover, the “effect on contraceptive effect of microdosed progestin “minipill” preparations” value in series [2] (in vivo) is recorded as “interferes with the contraceptive effect”. For the same molecule, in series [3], the Alopecia is listed as 319 (60.8) number (%) of patients, the Arthralgia is on record as 102 (19.4) number (%) of patients, the Atrophy of skin is listed as 64 (12.2) number (%) of patients and the Back pain is reported as 41 (7.8) number (%) of patients. Besides, in series [3], the Cheilitis was 429 (81.7) number (%) of patients, the “Dry Skin” value is listed as 174 (33.1) number (%) of patients, the “Dry mouth/Oral dryness” value is on record as 76 (14.5) number (%) of patients and the Epistaxis is 61 (11.6) number (%) of patients. Moreover, in series [3], the “Erythematous rash/Erythema” value is 57 (10.9) number (%) of patients, the Hyperesthesia was 66 (12.6) number (%) of patients, the “Nail Disorder” value was 170 (32.4) number (%) of patients and the Paresthesia is on record as 56 (10.7) number (%) of patients. For the same molecule, in series [3], the Paronychia/Nail disorder is recorded as 66 (12.6) number (%) of patients, the Pruritus is on record as 157 (29.9) number (%) of patients, the Rhinitis is 153 (29.1) number (%) of patients and the Rigors/Chills was 67 (12.8) number (%) of patients. In series [3], the “Skin peeling/Desquamation” value is on record as 345 (65.7) number (%) of patients, the “Sticky skin/Skin disorder” value was 129 (24.6) number (%) of patients and the Xerophthalmia/Eye disorder is reported as 112 (21.3) number (%) of patients.
With `C=C(c1ccc(C(=O)O)cc1)c1cc2c(cc1C)C(C)(C)CCC2(C)C` [bexarotene], in series [1], the “impact of food on bioavailability” value was “bioavailability is increased in the presence of food”. The “effect on plasma concentration of tamoxifen” value in series [2] (coadministration with tamoxifen) was “reduced plasma concentration of tamoxifen”.
As for `CC1=C(/C=C/C(C)=C/C=C/C(C)=C\C(=O)O)C(C)(C)CCC1` [isotretinoin], in series [1] (fasted vs high fat meal), the “total dose needed to reach the same peak blood concentration in the fasted state as following a high fat meal” value is reported as “more than doubled”. Further, the “impact of food on bioavailability” value in series [1] is recorded as “bioavailability is increased in the presence of food”. The “effect on blood concentrations of ethinyl estradiol and norethindrone” value in [2] (coadministered contraceptive tablets) was “decreases blood concentrations”. In addition, in [4], the Cheilitis is reported as 472 (90.2) number (%) of patients, the Conjunctivitis was 201 (38.4) number (%) of patients, the “Desquamation central face/Desquamation” value is listed as 187 (35.8) number (%) of patients and the Dry Skin was 172 (32.9) number (%) of patients. Further, in series [4], the Dry nose is given as 136 (26.0) number (%) of patients, the Epistaxis was 121 (23.1) number (%) of patients, the “Fingertip peeling/Desquamation” value is reported as 63 (12.0) number (%) of patients and the Headache is recorded as 44 (8.4) number (%) of patients. Besides, in series [4], the Irritation of eyes was 85 (16.3) number (%) of patients, the Pruritus is given as 127 (24.3) number (%) of patients, the “Red Scaly face/Desquamation” value is reported as 54 (10.3) number (%) of patients and the “Skin fragility/Skin disorder” value is listed as 164 (31.4) number (%) of patients.
What is called Cmax is the maximum level reached in the sampled fluid or tissue. Consider `CC1(C)CCSc2ccc(C#Cc3ccc(C(=O)O)cn3)cc21` [tazarotenic acid], for which, in series [5] (read-out: AUC0-24 for tazarotenic acid), the AUC(0-t) came to 379 ± 78 ng·h/mL. For the same molecule, the Cmax in [5] (read-out: Cmax for tazarotenic acid) came out at 111 ± 37 ng/mL. The “receptor specificity and selectivity” value in the series with RARs (RARs, RAR-β and RAR-γ) was “specificity for the RARs and selectivity for RAR-β and RAR-γ”. Besides, the “activation of the RXRs” value with RXRs is given as “does not activate the RXRs”. For the same molecule, in [6], the “90% confidence intervals (CI) of AUC ratios (test/reference)” value is “completely within the 80-125% boundary”. Besides, the “Effect of high-fat meal on bioavailability or pharmacokinetics of tazarotenic acid” value in [6] (single and multiple dose) is recorded as “does not substantially affect”. Also, the RAR-α activity result on RAR-α is reported as “minimal RAR-α activity”.
